Test results as given in patent publication EP3362444B1, “COMPOUNDS” (Exonate Limited, priority 2015, dated 2017).

What follows are compounds tested against T1, SRPK1 (Homo sapiens, UniProt Q96SB4) (assay: In vitro kinase assay (Kinase-Glo), SRPK1 inhibition). Details: SRPK1 inhibition assay; 1 µM ATP, SRSF1 RS peptide, 30°C 10 minutes.
T1 construct: 0.1 µg of purified SRPK1 kinase
Type: biochemical
Description: Candidate compounds were tested for SRPK1 inhibition using a Kinase-Glo assay (Promega, Southampton, UK32). […] Candidate compounds were serially diluted from 10 µM to 0.5 nM and added to the reaction mixture, wells with omitted SRPK1 kinase and omitted compounds were also added as controls. All wells contained 1% DMSO (Fisher Scientific, Loughborough, UK). One micromolar ATP was added, wells minus ATP were used as background controls. The plate was then incubated at 30°C for 10 minutes. An equal volume of Kinase-Glo (25 µL; Promega) was added to each well and the plate read for luminescence using a Fluostar Optima (BMG Labtech) .

T1 sequence (Q96SB4 whole entry): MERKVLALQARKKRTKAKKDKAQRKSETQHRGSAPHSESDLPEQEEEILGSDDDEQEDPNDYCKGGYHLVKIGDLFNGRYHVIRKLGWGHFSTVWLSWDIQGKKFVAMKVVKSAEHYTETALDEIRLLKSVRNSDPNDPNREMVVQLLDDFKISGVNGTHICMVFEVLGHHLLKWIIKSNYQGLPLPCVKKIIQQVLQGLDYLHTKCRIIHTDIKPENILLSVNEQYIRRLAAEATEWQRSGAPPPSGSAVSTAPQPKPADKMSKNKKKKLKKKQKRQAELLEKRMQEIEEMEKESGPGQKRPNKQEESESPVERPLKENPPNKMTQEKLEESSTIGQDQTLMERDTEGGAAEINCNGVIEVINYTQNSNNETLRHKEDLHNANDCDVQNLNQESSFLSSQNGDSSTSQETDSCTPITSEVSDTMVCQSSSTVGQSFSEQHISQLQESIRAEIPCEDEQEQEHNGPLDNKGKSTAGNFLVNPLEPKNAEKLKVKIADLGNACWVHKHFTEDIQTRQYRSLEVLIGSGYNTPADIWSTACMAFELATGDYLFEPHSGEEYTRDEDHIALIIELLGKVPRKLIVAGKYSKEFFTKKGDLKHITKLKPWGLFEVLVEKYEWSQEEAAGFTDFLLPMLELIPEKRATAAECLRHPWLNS

Row | SMILES | IC50
1 | O=C(Nc1cc(C(F)(F)F)ccc1N1CCN(Cc2cocn2)CC1)c1ccno1 [Compound 50, N-(2-(4-(oxazol-4-ylmethyl)piperazin-1-yl)-5-(trifluoro-methyl)phenyl)isoxazole-5-carboxamide] | 561 nM
2 | O=C(Nc1cc(C(F)(F)F)ccc1N1CCN(Cc2cocn2)CC1)c1ncccn1 [Compound 54, N-(2-(4-(oxazol-4-ylmethyl)piperazin-1-yl)-5-(trifluoro-methyl)phenyl)pyrimidine-2-carboxamide] | 344 nM
3 | O=C(Nc1cc(C(F)(F)F)ccc1N1CCN(Cc2ccco2)CC1)c1ccncc1 [Compound 35, N-(2-(4-(furan-2-ylmethyl)piperazin-1-yl)-5-(trifluoromethyl)-phenyl)isonicotinamide] | 388 nM
4 | Cc1ccc(CN2CCN(c3ccc(C(F)(F)F)cc3NC(=O)c3ccccn3)CC2)o1 [Compound 40, N-(2-(4-((5-methylfuran-2-yl)methyl)piperazin-1-yl)-5-(trifluoro-methyl)phenyl)picolinamide] | 145 nM
5 | O=C(Nc1cc(C(F)(F)F)ccc1N1CCN(Cc2ccno2)CC1)c1ccco1 [Compound 63, N-(2-(4-(isoxazol-5-ylmethyl)piperazin-1-yl)-5-(trifluoro-methyl)phenyl)furan-2-carboxamide] | 317 nM
6 | Cc1nnc(CN2CCN(c3ccc(C(F)(F)F)cc3NC(=O)c3ccco3)CC2)o1 [Compound 49, N-(2-(4-((5-methyl-1,3,4-oxadiazol-2-yl)methyl)piperazin-1-yl)-5-(trifluoromethyl)phenyl)furan-2-carboxamide] | 117 nM

The next compounds have a lower IC50 than those just listed; values first:

Row | IC50 | SMILES
7 | 1.8 nM | Cc1ccc(C(=O)Nc2cc(C(F)(F)F)ccc2N2CCN(Cc3ccoc3)CC2)o1 [Compound 45, N-(2-(4-(furan-3-ylmethyl)piperazin-1-yl)-5-(trifluoromethyl)phenyl)-5-methylfuran-2-carboxamide]
8 | 12.7 nM | O=C(Nc1cc(C(F)(F)F)ccc1N1CCN(Cc2cc[nH]n2)CC1)c1ccccn1 [Compound 33, N-(2-(4-((1H-pyrazol-3-yl)methyl)piperazin-1-yl)-5-(trifluoromethyl)-phenyl)picolinamide]
9 | 21.6 nM | O=C(Nc1cc(C(F)(F)F)ccc1N1CCN(Cc2cocn2)CC1)c1ccccn1 [Compound 36, N-(2-(4-(oxazol-4-ylmethyl)piperazin-1-yl)-5-(trifluoromethyl)phenyl)-picolinamide]
10 | 83.1 nM | O=C(Nc1cc(C(F)(F)F)ccc1N1CCN(Cc2cocn2)CC1)c1cc[nH]n1 [Compound 53, N-(2-(4-(oxazol-4-ylmethyl)piperazin-1-yl)-5-(trifluoro-methyl)phenyl)-1H-pyrazole-3-carboxamide]
11 | 74.9 nM | O=C(Nc1cc(C(F)(F)F)ccc1N1CCN(Cc2c[nH]c3ccccc23)CC1)c1ccco1 [Compound 75, N-(2-(4-((1H-indol-3-yl)methyl)piperazin-1-yl)-5-(trifluoromethyl)phenyl)furan-2-carboxamide]
12 | 21.9 nM | O=C(Nc1cc(C(F)(F)F)ccc1N1CCN(Cc2ccoc2)CC1)c1ccco1 [Compound 47, N-(2-(4-(furan-3-ylmethyl)piperazin-1-yl)-5-(trifluoromethyl)phenyl)furan-2-carboxamide]
13 | 10.7 nM | Cc1ccc(CN2CCN(c3ccc(C(F)(F)F)cc3NC(=O)c3ccc(C)o3)CC2)o1 [Compound 46, 5-methyl-N-(2-(4-((5-methylfuran-2-yl)methyl)piperazin-1-yl)-5-(trifluoromethyl)phenyl)furan-2-carboxamide]
14 | 0.5 nM | O=C(Nc1cc(C(F)(F)F)ccc1N1CCN(Cc2cncs2)CC1)c1ccccn1 [Compound 32, N-(2-(4-(thiazol-5-ylmethyl)piperazin-1-yl)-5-(trifluoromethyl)phenyl)-picolinamide]
15 | 5.5 nM | O=C(Nc1cc(C(F)(F)F)ccc1N1CCN(Cc2ccno2)CC1)c1ccc(C2CCOCC2)o1 [Compound 64, N-(2-(4-(isoxazol-5-ylmethyl)piperazin-1-yl)-5-(trifluoro-methyl)phenyl)-5-(tetrahydro-2H-pyran-4-yl)furan-2-carboxamide]
